Experimental data published in article PMC8213057, “Targeting ALK2: An Open Science Approach to Developing Therapeutics for the Treatment of Diffuse Intrinsic Pontine Glioma” (Journal of Medicinal Chemistry, 2020).

How the values were obtained:
DCAMKL1 = molecular target: T1, DCAMKL1 (Homo sapiens, UniProt O15075); conditions: 1 μM; Run 1, Run 2
T1 sequence (O15075 1-740): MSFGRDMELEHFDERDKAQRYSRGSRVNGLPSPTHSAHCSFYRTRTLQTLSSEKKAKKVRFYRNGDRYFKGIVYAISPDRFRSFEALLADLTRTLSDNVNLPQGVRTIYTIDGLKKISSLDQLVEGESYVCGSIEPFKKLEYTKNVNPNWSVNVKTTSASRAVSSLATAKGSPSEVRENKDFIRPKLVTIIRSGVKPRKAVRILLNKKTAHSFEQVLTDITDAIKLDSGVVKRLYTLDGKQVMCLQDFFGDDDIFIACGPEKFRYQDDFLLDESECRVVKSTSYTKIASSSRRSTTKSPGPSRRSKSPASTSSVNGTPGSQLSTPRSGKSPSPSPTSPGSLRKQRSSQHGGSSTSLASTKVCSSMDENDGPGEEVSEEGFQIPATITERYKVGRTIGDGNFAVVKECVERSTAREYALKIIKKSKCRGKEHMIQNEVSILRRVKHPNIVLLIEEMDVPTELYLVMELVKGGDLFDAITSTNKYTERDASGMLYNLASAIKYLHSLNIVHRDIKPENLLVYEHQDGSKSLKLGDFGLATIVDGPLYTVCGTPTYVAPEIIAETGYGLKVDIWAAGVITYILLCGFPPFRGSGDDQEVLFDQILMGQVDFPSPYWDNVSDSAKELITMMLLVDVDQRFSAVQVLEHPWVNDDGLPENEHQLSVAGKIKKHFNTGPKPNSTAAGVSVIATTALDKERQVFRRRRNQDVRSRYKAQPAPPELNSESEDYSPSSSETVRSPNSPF

PKG1a = molecular target: T2, PKG1a (Homo sapiens, UniProt Q13976); assay: biochemical; conditions: read-out: % enzyme activity, 1 μM; Run 1, Run 2
T2 sequence (Q13976 1-671): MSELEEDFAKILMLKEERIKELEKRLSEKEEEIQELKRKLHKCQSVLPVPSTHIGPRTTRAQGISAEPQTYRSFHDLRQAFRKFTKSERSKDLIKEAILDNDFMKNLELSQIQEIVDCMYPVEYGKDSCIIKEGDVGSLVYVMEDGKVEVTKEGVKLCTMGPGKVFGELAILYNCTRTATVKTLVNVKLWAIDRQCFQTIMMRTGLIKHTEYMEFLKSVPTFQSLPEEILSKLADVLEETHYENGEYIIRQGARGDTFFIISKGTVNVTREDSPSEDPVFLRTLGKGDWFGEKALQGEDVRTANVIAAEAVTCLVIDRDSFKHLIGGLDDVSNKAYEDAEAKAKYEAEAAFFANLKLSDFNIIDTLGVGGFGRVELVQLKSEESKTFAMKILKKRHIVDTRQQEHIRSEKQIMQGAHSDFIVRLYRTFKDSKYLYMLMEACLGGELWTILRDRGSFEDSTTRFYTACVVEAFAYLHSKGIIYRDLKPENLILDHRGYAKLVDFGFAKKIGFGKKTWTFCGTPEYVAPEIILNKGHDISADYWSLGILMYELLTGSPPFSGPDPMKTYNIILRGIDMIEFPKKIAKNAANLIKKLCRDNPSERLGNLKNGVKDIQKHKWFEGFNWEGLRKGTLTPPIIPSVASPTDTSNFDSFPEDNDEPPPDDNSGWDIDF

CDK9/cyclin T1 = CDK9/cyclin T1 (Homo sapiens, UniProt P50750); conditions: 1 μM; Run 1, Run 2
LRRK2 = LRRK2 (Homo sapiens, UniProt Q5S007); conditions: 1 μM; Run 1, Run 2
IKKe/IKBKE = molecular target: T3, IKKe/IKBKE (Homo sapiens, UniProt Q14164); assay: biochemical; conditions: read-out: % enzyme activity, 1 μM; Run 1, Run 2
T3 sequence (Q14164 1-716): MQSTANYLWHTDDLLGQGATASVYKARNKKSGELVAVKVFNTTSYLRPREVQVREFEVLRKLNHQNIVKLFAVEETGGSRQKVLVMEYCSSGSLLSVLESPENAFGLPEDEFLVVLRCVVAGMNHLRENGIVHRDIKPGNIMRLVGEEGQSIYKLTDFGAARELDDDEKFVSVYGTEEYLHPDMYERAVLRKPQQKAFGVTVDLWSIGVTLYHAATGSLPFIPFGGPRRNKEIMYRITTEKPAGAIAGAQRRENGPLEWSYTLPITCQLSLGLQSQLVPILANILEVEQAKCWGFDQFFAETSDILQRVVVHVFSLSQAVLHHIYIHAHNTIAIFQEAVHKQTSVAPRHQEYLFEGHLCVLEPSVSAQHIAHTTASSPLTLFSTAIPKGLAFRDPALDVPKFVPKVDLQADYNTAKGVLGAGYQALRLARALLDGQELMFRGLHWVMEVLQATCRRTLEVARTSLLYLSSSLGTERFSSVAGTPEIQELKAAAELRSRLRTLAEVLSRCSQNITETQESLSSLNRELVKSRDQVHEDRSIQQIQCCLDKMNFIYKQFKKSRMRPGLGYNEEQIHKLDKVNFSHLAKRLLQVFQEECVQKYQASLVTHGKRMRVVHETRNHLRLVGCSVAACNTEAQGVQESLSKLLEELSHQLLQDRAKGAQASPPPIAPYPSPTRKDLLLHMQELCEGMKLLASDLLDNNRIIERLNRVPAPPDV

CDK9/cyclin T1, sequence (P50750 whole entry): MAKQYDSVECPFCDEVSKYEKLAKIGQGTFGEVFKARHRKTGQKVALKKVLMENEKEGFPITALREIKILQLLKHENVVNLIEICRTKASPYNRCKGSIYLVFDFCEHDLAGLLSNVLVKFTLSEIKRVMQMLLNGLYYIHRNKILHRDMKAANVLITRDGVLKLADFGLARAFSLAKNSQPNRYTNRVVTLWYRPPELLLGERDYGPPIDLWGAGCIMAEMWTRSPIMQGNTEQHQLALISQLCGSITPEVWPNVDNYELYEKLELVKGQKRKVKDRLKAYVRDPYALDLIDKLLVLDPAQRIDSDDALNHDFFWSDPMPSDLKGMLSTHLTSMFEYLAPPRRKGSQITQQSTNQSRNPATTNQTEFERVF
CDK9/cyclin T1, sequence (O60563 whole entry partner): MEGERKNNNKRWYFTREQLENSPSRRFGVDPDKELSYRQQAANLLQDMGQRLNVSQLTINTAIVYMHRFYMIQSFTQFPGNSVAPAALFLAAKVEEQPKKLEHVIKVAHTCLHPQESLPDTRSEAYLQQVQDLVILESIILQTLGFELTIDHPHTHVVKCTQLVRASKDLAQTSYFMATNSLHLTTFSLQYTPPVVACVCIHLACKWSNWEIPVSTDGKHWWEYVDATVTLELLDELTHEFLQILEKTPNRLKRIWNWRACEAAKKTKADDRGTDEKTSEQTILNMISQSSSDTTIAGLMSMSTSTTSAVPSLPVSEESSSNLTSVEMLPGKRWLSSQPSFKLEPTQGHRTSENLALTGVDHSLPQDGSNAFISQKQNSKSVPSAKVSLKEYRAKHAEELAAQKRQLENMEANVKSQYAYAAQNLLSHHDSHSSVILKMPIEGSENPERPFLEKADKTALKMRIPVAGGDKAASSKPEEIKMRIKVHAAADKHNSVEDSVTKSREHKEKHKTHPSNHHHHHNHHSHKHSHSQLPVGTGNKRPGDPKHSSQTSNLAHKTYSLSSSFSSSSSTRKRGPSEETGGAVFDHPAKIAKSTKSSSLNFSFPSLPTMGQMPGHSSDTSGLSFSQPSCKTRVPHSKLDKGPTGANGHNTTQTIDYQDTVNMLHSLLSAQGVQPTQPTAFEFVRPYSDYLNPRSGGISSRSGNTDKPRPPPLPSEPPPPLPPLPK
LRRK2, sequence (Q5S007 whole entry): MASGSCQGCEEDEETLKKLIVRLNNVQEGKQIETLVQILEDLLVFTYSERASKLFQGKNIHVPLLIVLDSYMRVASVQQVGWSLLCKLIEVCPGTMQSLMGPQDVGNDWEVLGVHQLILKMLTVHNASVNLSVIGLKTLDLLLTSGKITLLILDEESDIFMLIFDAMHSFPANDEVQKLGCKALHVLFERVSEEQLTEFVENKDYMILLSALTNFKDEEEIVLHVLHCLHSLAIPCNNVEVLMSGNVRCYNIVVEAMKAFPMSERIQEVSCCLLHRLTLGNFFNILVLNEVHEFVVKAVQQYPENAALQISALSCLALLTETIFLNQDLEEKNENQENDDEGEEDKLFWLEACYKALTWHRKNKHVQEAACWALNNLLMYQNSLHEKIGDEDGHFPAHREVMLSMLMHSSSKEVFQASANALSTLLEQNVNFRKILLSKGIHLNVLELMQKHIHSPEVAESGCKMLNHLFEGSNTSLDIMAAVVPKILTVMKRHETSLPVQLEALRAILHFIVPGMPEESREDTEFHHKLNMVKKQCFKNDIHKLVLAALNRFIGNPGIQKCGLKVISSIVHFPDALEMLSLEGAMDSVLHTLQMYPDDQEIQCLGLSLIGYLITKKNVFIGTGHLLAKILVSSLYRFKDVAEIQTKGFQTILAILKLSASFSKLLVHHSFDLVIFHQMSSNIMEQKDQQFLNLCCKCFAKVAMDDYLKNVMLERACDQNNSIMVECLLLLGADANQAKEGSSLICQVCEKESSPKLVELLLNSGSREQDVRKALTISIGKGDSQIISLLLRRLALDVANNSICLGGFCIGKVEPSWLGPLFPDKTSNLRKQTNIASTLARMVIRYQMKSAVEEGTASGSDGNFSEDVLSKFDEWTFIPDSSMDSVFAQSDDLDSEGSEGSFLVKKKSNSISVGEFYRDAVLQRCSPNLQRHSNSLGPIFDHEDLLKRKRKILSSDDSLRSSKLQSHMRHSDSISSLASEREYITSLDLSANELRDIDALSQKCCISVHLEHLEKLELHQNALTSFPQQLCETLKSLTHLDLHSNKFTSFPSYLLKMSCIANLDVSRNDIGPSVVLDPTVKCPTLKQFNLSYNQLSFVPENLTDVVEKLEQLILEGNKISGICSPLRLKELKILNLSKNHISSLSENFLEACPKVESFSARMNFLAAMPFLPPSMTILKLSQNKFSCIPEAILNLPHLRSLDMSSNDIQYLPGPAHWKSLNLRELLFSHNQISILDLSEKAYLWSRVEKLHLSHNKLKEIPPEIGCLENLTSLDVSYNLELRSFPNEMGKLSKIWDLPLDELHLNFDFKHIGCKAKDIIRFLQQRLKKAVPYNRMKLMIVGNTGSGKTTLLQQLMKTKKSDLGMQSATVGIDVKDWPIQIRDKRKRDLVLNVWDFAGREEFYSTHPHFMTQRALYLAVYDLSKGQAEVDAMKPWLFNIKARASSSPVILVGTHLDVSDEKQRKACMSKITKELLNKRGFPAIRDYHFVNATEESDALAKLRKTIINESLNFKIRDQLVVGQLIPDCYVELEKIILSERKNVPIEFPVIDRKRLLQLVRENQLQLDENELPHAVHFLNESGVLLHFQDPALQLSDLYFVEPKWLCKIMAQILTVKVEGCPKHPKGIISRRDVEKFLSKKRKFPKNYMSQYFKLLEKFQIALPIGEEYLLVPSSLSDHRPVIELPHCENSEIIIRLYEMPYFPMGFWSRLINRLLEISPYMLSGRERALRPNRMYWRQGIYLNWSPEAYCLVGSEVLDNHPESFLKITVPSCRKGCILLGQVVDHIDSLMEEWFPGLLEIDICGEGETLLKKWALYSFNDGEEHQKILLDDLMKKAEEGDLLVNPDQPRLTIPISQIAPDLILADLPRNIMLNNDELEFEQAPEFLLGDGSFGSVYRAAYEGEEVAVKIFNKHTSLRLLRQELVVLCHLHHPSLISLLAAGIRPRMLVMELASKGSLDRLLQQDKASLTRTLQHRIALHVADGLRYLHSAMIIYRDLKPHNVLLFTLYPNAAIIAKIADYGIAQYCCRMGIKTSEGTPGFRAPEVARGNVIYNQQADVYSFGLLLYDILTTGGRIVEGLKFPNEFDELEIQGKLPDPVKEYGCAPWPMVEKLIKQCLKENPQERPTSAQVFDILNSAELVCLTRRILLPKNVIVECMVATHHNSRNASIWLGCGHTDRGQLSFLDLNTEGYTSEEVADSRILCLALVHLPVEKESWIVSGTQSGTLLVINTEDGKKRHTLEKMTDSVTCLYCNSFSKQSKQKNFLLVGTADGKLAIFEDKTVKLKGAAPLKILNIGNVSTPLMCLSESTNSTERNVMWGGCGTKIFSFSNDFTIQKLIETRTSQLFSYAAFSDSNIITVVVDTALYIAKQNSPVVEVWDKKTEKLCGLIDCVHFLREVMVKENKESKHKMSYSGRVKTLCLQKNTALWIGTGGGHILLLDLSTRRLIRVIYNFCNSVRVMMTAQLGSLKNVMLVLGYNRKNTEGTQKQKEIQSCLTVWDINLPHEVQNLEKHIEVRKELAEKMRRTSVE

Compound	% enzyme activity (DCAMKL1) [%]	remaining activity at 1 µM (PKG1a) [%]	% enzyme activity (CDK9/cyclin T1) [%]	% enzyme activity (LRRK2) [%]	remaining activity at 1 µM (IKKe/IKBKE) [%]
COc1cc(-c2cncc(-c3ccc(N4CCN(C)CC4)cc3)c2C)cc(F)c1C(N)=O [Compound 26a, 2-Fluoro-6-methoxy-4-(4-methyl-5-(4-(4-methylpiperazin-1-yl)phenyl)pyridin-3-yl)benzamide]	81.46	97.9	90.82	59.73	91.1
COc1cc(-c2cncc(-c3ccc(N4C[C@@H](C)N(C)[C@@H](C)C4)cc3)c2C)cc(F)c1C(N)=O [Compound 26c, 2-Fluoro-6-methoxy-4-(4-methyl-5-(4-((3R,5S)-3,4,5-trimethylpiperazin-1-yl)phenyl)pyridin-3-yl)benzamide]	85.85	102	96.85	77.27	96.7
